The values below come from patent US10045983B2, “Heteroaryl pyridone and aza-pyrodine compounds” (Genentech, Inc., priority 2011, dated 2018).

What is called IC70 is the point of the concentration-response curve where the effect stands at 70%.

One assay is described as follows: CD69 Whole Blood Assay (CD69 Hu Blood FACS). It is filed as cell-based, human. As to conditions: Lymphocyte; human whole blood, anti-IgM activated B lymphocytes, FACS; IC70; Table 1; read-out: CD69 Hu Blood FACS IC70. An outline of the steps:
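Compounds tested for blocking B-cell CD69 induction by flow cytometry in human whole blood, with activation via anti-human IgM goat F(ab′)2 crosslinking of surface IgM.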
Take `CCN1CCn2nc(Nc3cc(-c4ccnc(N5CCn6c(cc7c6CCCC7)C5=O)c4CO)cn(C)c3=O)cc2C1` [Example 177, 2-(4-(5-(5-ethyl-4,5,6,7-tetrahydropyrazolo[1,5-a]pyrazin-2-ylamino)-1-methyl-6-oxo-1,6-dihydropyridin-3-yl)-3-(hydroxymethyl)pyridin-2-yl)-3,4,6,7,8,9-hexahydropyrazino[1,2-a]indol-1(2H)-one]: the IC70 was 0.107 µM.

As to `Cn1cc(-c2ccnc(-n3ncc4c5c(sc4c3=O)CCCC5)c2CO)cc(Nc2ccccn2)c1=O` [Example 178, 3-[3′-Hydroxymethyl-1-methyl-6-oxo-5-(pyridin-2-ylamino)-1,6-dihydro-[3,4′]bipyridinyl-2′-yl]-6,7,8,9-tetrahydro-3H-benzo[4,5]thieno[2,3-d]pyridazin-4-one], the IC70 is 1.1 µM.

On to `Cc1nccc(Nc2cc(-c3ccnc(N4CCn5c(cc6c5CC(C)(C)C6)C4=O)c3CO)cn(C)c2=O)n1` [Example 179, 2-[3′-Hydroxymethyl-1-methyl-5-(2-methyl-pyrimidin-4-ylamino)-6-oxo-1,6-dihydro-[3,4′]bipyridinyl-2′-yl]-7,7-dimethyl-3,4,7,8-tetrahydro-2H,6H-cyclopenta[4,5]pyrrolo[1,2-a]pyrazin-1-one], for which the 70% effect concentration (IC70) was found to be 0.209 µM.

As to `Cc1cc(Nc2cc(-c3ccnc(N4CCn5c(cc6c5CC(C)(C)C6)C4=O)c3CO)cn(C)c2=O)ncn1` [Example 180, 2-[3′-Hydroxymethyl-1-methyl-5-(6-methyl-pyrimidin-4-ylamino)-6-oxo-1,6-dihydro-[3,4′]bipyridinyl-2′-yl]-7,7-dimethyl-3,4,7,8-tetrahydro-2H,6H-cyclopenta[4,5]pyrrolo[1,2-a]pyrazin-1-one], the IC70 worked out at 0.245 µM.

With `CN1CCn2nc(Nc3cc(-c4ccnc(-n5ncc6c7c(sc6c5=O)CCCC7)c4CO)cn(C)c3=O)cc2C1` [Example 181, 3-[3′-Hydroxymethyl-1-methyl-5-(5-methyl-4,5,6,7-tetrahydro-pyrazolo[1,5-a]pyrazin-2-ylamino)-6-oxo-1,6-dihydro-[3,4′]bipyridinyl-2′-yl]-6,7,8,9-tetrahydro-3H-benzo[4,5]thieno[2,3-d]pyridazin-4-one], the IC70 was 0.144 µM.

For `Cn1cc(-c2ccnc(-n3ncc4c5c(sc4c3=O)CCCC5)c2CO)cc(Nc2ccncn2)c1=O` [Example 182, 3-[3′-Hydroxymethyl-1-methyl-6-oxo-5-(pyrimidin-4-ylamino)-1,6-dihydro-[3,4′]bipyridinyl-2′-yl]-6,7,8,9-tetrahydro-3H-benzo[4,5]thieno[2,3-d]pyridazin-4-one], the IC70 stood at 0.813 µM.

As to `Cn1cc(-c2ccnc(N3CCn4c5c(c(F)c4C3=O)CCCC5)c2CO)cc(Nc2ccccn2)c1=O` [Example 183, 10-fluoro-2-(3-(hydroxymethyl)-4-(1-methyl-6-oxo-5-(pyridin-2-ylamino)-1,6-dihydropyridin-3-yl)pyridin-2-yl)-3,4,6,7,8,9-hexahydropyrazino[1,2-a]indol-1(2H)-one], the IC70 was determined as 0.906 µM.

Regarding `Cn1cc(-c2ccnc(N3CCc4c(sc5c4CC(C)(C)C5)C3=O)c2CO)cc(Nc2cnccn2)c1=O` [Example 184, 6-[3′-Hydroxymethyl-1-methyl-6-oxo-5-(pyrazin-2-ylamino)-1,6-dihydro-[3,4′]bipyridinyl-2′-yl]-2,2-dimethyl-2,3,5,6-tetrahydro-1H,4H-8-thia-6-aza-cyclopenta[a]inden-7-one], the 70% effect concentration (IC70) came out at 0.601 µM.

With `Cn1cc(-c2ccnc(N3CCn4c(cc5c4CC(C)(C)C5)C3=O)c2CO)nc(Nc2ccn3ccnc3c2)c1=O` [Example 185, 2-{3-Hydroxymethyl-4-[6-(imidazo[1,2-a]pyridin-7-ylamino)-4-methyl-5-oxo-4,5-dihydro-pyrazin-2-yl]-pyridin-2-yl}-7,7-dimethyl-3,4,7,8-tetrahydro-2H,6H-cyclopenta[4,5]pyrrolo[1,2-a]pyrazin-1-one], the IC70 turned out to be 1.3 µM.

For the compound `Cn1cc(-c2ccnc(N3CCn4c5c(c(F)c4C3=O)CCCC5)c2CO)nc(Nc2cccnc2)c1=O` [Example 186, 10-fluoro-2-(3-(hydroxymethyl)-4-(4-methyl-5-oxo-6-(pyridin-3-ylamino)-4,5-dihydropyrazin-2-yl)pyridin-2-yl)-3,4,6,7,8,9-hexahydropyrazino[1,2-a]indol-1(2H)-one], the concentration for an effect of 70% (IC70) was 1.6 µM.

Take `Cn1cc(-c2ccnc(N3CCn4c(cc5c4CCCC5)C3=O)c2CO)cc(Nc2ccc(N3CCN(C4COC4)CC3(C)C)cn2)c1=O` [Example 187, 2-(4-(5-(5-(2,2-dimethyl-4-(oxetan-3-yl)piperazin-1-yl)pyridin-2-ylamino)-1-methyl-6-oxo-1,6-dihydropyridin-3-yl)-3-(hydroxymethyl)pyridin-2-yl)-3,4,6,7,8,9-hexahydropyrazino[1,2-a]indol-1(2H)-one]: the concentration for an effect of 70% (IC70) was 0.0451 µM.

As for `Cn1cc(-c2ccnc(N3CCn4c(cc5c4CC(C)(C)C5)C3=O)c2CO)cc(Nc2cnccn2)c1=O` [Example 188, 2-[3′-Hydroxymethyl-1-methyl-6-oxo-5-(pyrazin-2-ylamino)-1,6-dihydro-[3,4′]bipyridinyl-2′-yl]-7,7-dimethyl-3,4,7,8-tetrahydro-2H,6H-cyclopenta[4,5]pyrrolo[1,2-a]pyrazin-1-one], the IC70 is 0.601 µM.

As to `Cn1cc(-c2ccnc(N3CCn4c(cc5c4CCCC5)C3=O)c2CO)cc(Nc2cnc(N3CCN(C4COC4)CC3)cn2)c1=O` [Example 189, 2-(3-(hydroxymethyl)-4-(1-methyl-5-(5-(4-(oxetan-3-yl)piperazin-1-yl)pyrazin-2-ylamino)-6-oxo-1,6-dihydropyridin-3-yl)pyridin-2-yl)-3,4,6,7,8,9-hexahydropyrazino[1,2-a]indol-1(2H)-one], the IC70 worked out at 0.652 µM.

The assay is the same for the next values; noted with them: Lymphocyte; human whole blood, anti-IgM activated B lymphocytes, FACS; IC70; Table 2 (unit inferred); read-out: CD69 Hu Blood FACS (IC70).
`Cn1cc(-c2ccnc(N3CCn4c(cc5c4CCCC5)C3=O)c2CO)cc(Nc2ccc(N3CCN(C4COC4)CC3(C)C)cn2)c1=O` [Example 190, 2-[4-[5-[[5-[2,2-dimethyl-4-(oxetan-3-yl)piperazin-1-yl]-2-pyridyl]amino]-1-methyl-6-oxo-3-pyridyl]-3-(hydroxymethyl)-2-pyridyl]-3,4,6,7,8,9-hexahydropyrazino[1,2-a]indol-1-one]: the concentration for an effect of 70% (IC70) is 0.0704 µM.

Turning to `C[C@H]1CN(C2COC2)CCN1c1ccc(Nc2cc(-c3ccnc(-n4ncc5c6c(sc5c4=O)CCCC6)c3CO)cn(C)c2=O)nc1` [Example 191, 5-[3-(Hydroxymethyl)-4-[1-methyl-5-({5-[(2S)-2-methyl-4-(oxetan-3-yl)pipera-zin-1-yl]pyridin-2-yl}amino)-6-oxo-1,6-dihydropyridin-3-yl]pyridin-2-yl]-8-thia-4,5-diazatricyclo[7.4.0.0^2,7]trideca-1(9),2(7),3-trien-6-one], the concentration for an effect of 70% (IC70) worked out at 0.0435 µM.

With `C[C@H]1CN(C2COC2)CCN1c1ccc(Nc2cc(-c3ccnc(-n4ncc5c6n(cc5c4=O)CCCC6)c3CO)cn(C)c2=O)nc1` [Example 192, 3-[3-(hydroxymethyl)-4-[1-methyl-5-[[5-[(2S)-2-methyl-4-(oxetan-3-yl)piperazin-1-yl]-2-pyridyl]amino]-6-oxo-3-pyridyl]-2-pyridyl]-7,8,9,10-tetrahydropyridazino[4,5-a]indolizin-4-one], the IC70 was 1.1 µM.
